Test systems include 786-0; DU-145; HCC 2998; HCT-15; HT-29; M14; NCI-H226; NCI-H460; NCI-H522; OVCAR-3; OVCAR-4; OVCAR-5; OVCAR-8; SF-268; U-251; UACC-62; UO-31; HL-60; SR.
Test in all cases: DTP human tumour cell line panel, 48 h

Structures are written as SMILES. Where “and” joins values, the source holds several entries; their conditions need not be identical. Equal values may be shown once.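 A five-concentration, 48-hour dose response in 96-well plates underlies each endpoint, interpolated linearly between surrounding concentrations. GI50: concentration for 50% inhibition of growth.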 Calls of active or inactive are those of the source. Cut-off read from the data, not from the text of the source: active = GI50 up to about 1.1 µM and inactive = higher.

By GI50 is commonly meant the concentration at which growth is held to half of that of the control. `Cc1n[nH]c(=O)n1-n1cccc1`: the GI50 in the assay with 786-0 was > 100 µM (inactive); in the assay with DU-145 it was > 100 µM (inactive); with HCC 2998 it was > 100 µM (inactive); in the assay on HCT-15, greater than 100 µM; with HT-29, > 100 µM (inactive); with M14, > 100 µM (inactive). Moreover, the GI50 in the assay on NCI-H226, in the assay with NCI-H460, with NCI-H522, in the assay on OVCAR-3, in the assay on OVCAR-4 and with OVCAR-5 was > 100 µM (inactive) throughout. The GI50 with OVCAR-8, with SF-268, with U-251, in the assay with UACC-62 and with UO-31 was > 100 µM (inactive) in each case.

As for `CC1N=C(c2ccccc2)OC1=O` (centres undefined), the GI50 was > 100 µM (inactive) in the assay on 786-0; > 100 µM (inactive) in the assay with DU-145; greater than 100 µM in the assay with HCT-15; > 100 µM (inactive) in the assay with HT-29; > 100 µM (inactive) in the assay on M14; > 100 µM (inactive) with NCI-H226. Besides, the GI50 in the assay on NCI-H460, in the assay with NCI-H522, with OVCAR-3, in the assay with OVCAR-4, with OVCAR-5 and in the assay on OVCAR-8 was > 100 µM (inactive) throughout. The GI50 in the assay on SF-268, with U-251, with UACC-62 and in the assay with UO-31 was > 100 µM (inactive) throughout.

With `C[C@@H]1C(=O)O[C@H]1[C@H](O)CO`, the GI50 was > 100 µM (inactive) with 786-0; > 100 µM (inactive) in the assay on DU-145; > 100 µM (inactive) in the assay with HCC 2998; greater than 100 µM with HCT-15; > 100 µM (inactive) in the assay on HL-60; > 100 µM (inactive) in the assay on M14. For the same compound, the GI50 in the assay on NCI-H460, in the assay on OVCAR-3, with OVCAR-4, with OVCAR-5, in the assay with OVCAR-8 and in the assay with U-251 was > 100 µM (inactive) in each case. In addition, the GI50 is > 100 µM (inactive) with UACC-62 and > 10 µM (inactive) in the assay on UO-31.

Turning to `O=C(Nc1ccc2[nH]c(C(=O)N3CC(CCl)c4c3cc([N+](=O)[O-])c3ccccc43)cc2c1)Nc1ccc2[nH]c(C(=O)N3CC(CCl)c4c3cc([N+](=O)[O-])c3ccccc43)cc2c1` (centres undefined), the GI50 with 786-0 is > 100 µM (inactive); in the assay on DU-145, > 100 µM (inactive); in the assay on HCT-15, greater than 100 µM; in the assay on M14 it was 31.3 µM (inactive); in the assay with NCI-H226, > 100 µM (inactive); in the assay on NCI-H460, > 100 µM (inactive). The GI50 with NCI-H522, in the assay on OVCAR-3, with OVCAR-4, in the assay on OVCAR-5, with SF-268 and with U-251 was > 100 µM (inactive) each time. The values for the GI50 with UACC-62 and in the assay on UO-31 were > 100 µM (inactive) and 17.9 µM (inactive), respectively.

Regarding `NC(=O)NC(=O)c1cnccn1`, the GI50 with 786-0 was > 100 µM (inactive); in the assay with DU-145, > 100 µM (inactive); with HCC 2998, > 100 µM (inactive); in the assay with HCT-15, greater than 100 µM; in the assay on M14, > 100 µM (inactive); in the assay on NCI-H226 it was 54.1 µM (inactive). Moreover, the GI50 in the assay on NCI-H460, in the assay with NCI-H522, in the assay with OVCAR-3, in the assay with OVCAR-4, in the assay on OVCAR-5 and in the assay with SF-268 was > 100 µM (inactive) in each case. Moreover, the GI50 in the assay with U-251, in the assay with UACC-62 and in the assay on UO-31 was > 100 µM (inactive) each time.

Consider `CCOC(CI)O[C@@H]1C=C[C@H](OC(C)=O)C1` (some centres undefined), for which the GI50 with 786-0 is > 100 µM (inactive); with DU-145 it was > 100 µM (inactive); in the assay on HCC 2998, > 100 µM (inactive); in the assay with HCT-15, greater than 100 µM; in the assay on HT-29, > 100 µM (inactive); in the assay with M14, > 100 µM (inactive). For the same compound, the GI50 is > 100 µM (inactive) in the assay with NCI-H226; > 100 µM (inactive) in the assay with NCI-H460; 33.7 µM (inactive) in the assay on OVCAR-3; > 100 µM (inactive) in the assay on OVCAR-4; > 100 µM (inactive) in the assay on OVCAR-5; > 100 µM (inactive) with OVCAR-8. Besides, the GI50 with SF-268, with U-251, with UACC-62 and with UO-31 was > 100 µM (inactive) in each case.

Take `COC(=O)[C@H]1C2CC[C@@H]3C45C[C@@H](c6ccoc6)O[C@@H]4O[C@@H](O2)C31CCC5C` (some centres undefined): the GI50 was 91.2 µM (inactive) in the assay on 786-0; 95.9 µM (inactive) in the assay with HCC 2998; 86.3 µM in the assay on HCT-15; > 100 µM (inactive) in the assay with HL-60; > 100 µM (inactive) in the assay on HT-29; > 100 µM (inactive) in the assay on M14. Moreover, the GI50 with NCI-H226 is 76.7 µM (inactive); with NCI-H460, > 100 µM (inactive); in the assay on NCI-H522, 91.6 µM (inactive); with OVCAR-3, > 100 µM (inactive); with OVCAR-4, > 100 µM (inactive); in the assay with OVCAR-5, > 100 µM (inactive). In addition, the GI50 with OVCAR-8 is > 100 µM (inactive); in the assay with SF-268 it was > 100 µM (inactive); with U-251, > 100 µM (inactive); with UACC-62, > 100 µM (inactive); in the assay on UO-31, 68.5 µM (inactive).

Regarding `COc1ccc(/C=C2\S/C(=N/Nc3nc(-c4ccccc4)cs3)NC2=O)cc1OC`, the GI50 is 28.4 µM (inactive) in the assay with 786-0; 34 µM (inactive) in the assay with DU-145; 22.4 µM (inactive) in the assay on HCC 2998; 21.5 µM in the assay with HCT-15; 6 µM (inactive) in the assay on HL-60; 32.4 µM (inactive) with M14. For the same compound, the GI50 in the assay on NCI-H460 is 23 µM (inactive); in the assay on NCI-H522, 18.5 µM (inactive); with OVCAR-3, 15.9 µM (inactive); in the assay with OVCAR-4, 27.2 µM (inactive); in the assay on OVCAR-5 it was 23.4 µM (inactive); with OVCAR-8 it was 21 µM (inactive). The GI50 was 29 µM (inactive) in the assay on SF-268, 26.3 µM (inactive) in the assay on U-251, 23.6 µM (inactive) with UACC-62 and 15.6 µM (inactive) in the assay on UO-31.

Turning to `O=C(Nc1ccc(Cl)cc1)NS(=O)(=O)c1coc2cc(F)ccc2c1=O`, the GI50 with 786-0 is > 100 µM (inactive); in the assay with HCC 2998, 80.4 µM (inactive); with HCT-15 it was 19.9 µM; in the assay on HT-29, > 100 µM (inactive); in the assay on M14 it was > 100 µM (inactive); with NCI-H226 it was > 100 µM (inactive). Also, the GI50 was > 100 µM (inactive) in the assay with NCI-H460; 67.9 µM (inactive) in the assay with NCI-H522; > 100 µM (inactive) with OVCAR-3; > 100 µM (inactive) in the assay on OVCAR-4; > 100 µM (inactive) in the assay on OVCAR-5; > 100 µM (inactive) in the assay with OVCAR-8. In addition, the GI50 in the assay on SF-268 is > 100 µM (inactive); in the assay on SR it was 95.9 µM (inactive); in the assay on U-251 it was 62.2 µM (inactive); with UACC-62, 26.2 µM (inactive); in the assay with UO-31, 86.3 µM (inactive).

Turning to `C[C@H]1CCC/C=C/[C@@H]2C[C@H](O)C[C@H]2[C@H](O)/C=C/C(=O)O1` [BREFELDIN A], the GI50 with 786-0 is < 10 nM (active) and 13.2 nM (active); in the assay with HCT-15 it was 0.0692 µM and 0.043 µM; in the assay on HT-29, < 10 nM (active) and 15.8 nM (active); in the assay with M14 it was < 16.1 nM (active) and 26.1 nM (active); with NCI-H226, 19.9 nM (active) and 25.8 nM (active); in the assay on OVCAR-3, < 18.2 nM (active) and 30.5 nM (active). Further, the GI50 with OVCAR-4 was < 14.7 nM (active) and 24.7 nM (active); in the assay on OVCAR-5, < 24 nM (active) and 44 nM (active); in the assay on OVCAR-8, < 12.9 nM (active) and 22.2 nM (active); with U-251, 68.1 nM (active) and 36.7 nM (active); with UACC-62, < 14.2 nM (active) and 18.2 nM (active); in the assay with UO-31, 23.2 nM (active) and < 18.3 nM (active).

Turning to `CCOC(=O)Cn1c(C)nc2nn(Cc3ccccc3)cc2c1=O`, the GI50 in the assay on 786-0 was > 100 µM (inactive); in the assay with DU-145 it was > 100 µM (inactive); in the assay with HCC 2998, > 100 µM (inactive); in the assay on HCT-15 it was greater than 100 µM; in the assay with HT-29, > 100 µM (inactive); in the assay on M14 it was > 100 µM (inactive). For the same compound, the GI50 in the assay on NCI-H226, with NCI-H460, in the assay with OVCAR-3, in the assay on OVCAR-5, in the assay with OVCAR-8 and in the assay with SF-268 was > 100 µM (inactive) each time. Also, the GI50 with U-251, in the assay with UACC-62 and in the assay on UO-31 was > 100 µM (inactive) in each case.

As to `CN(C)CCOC1(Cc2ccc(Cl)cc2Cl)CCC(C(C)(C)C)CC1` (centres undefined), the GI50 is 1.83 µM (inactive) in the assay on 786-0; 1.63 µM (inactive) with HCC 2998; 1.85 µM with HCT-15; 1.52 µM (inactive) with HT-29; 1.79 µM (inactive) in the assay on M14; 1.66 µM (inactive) in the assay on NCI-H460. Besides, the GI50 was 1.79 µM (inactive) in the assay on NCI-H522; 1.71 µM (inactive) in the assay on OVCAR-3; 1.81 µM (inactive) in the assay on OVCAR-4; 2.78 µM (inactive) in the assay with OVCAR-5; 1.94 µM (inactive) with OVCAR-8; 5.01 µM (inactive) in the assay with SF-268. In addition, the GI50 in the assay with SR was 2.52 µM (inactive); with U-251, 1.46 µM (inactive); in the assay on UACC-62 it was 2.12 µM (inactive).

The values above are taken from ChEMBL document CHEMBL1201862, “PubChem BioAssay data set” (2004).
